Test results from patent US8722649B2, “Alpha-chloro and alpha-bromo phosphonate analogs of lysophosphatidic acid and methods of making and using thereof” (University of Utah Research Foundation, priority 2007, dated 2014).
“Also recorded” adds a separate entry of the source.

Legend:
LPA GPCRs = assay: Ca2+ mobilization assay, overall profile across LPA GPCRs; type: cell-based, human; conditions: across LPA1-4
Procedure: After incubating the cells with Fura-2 AM, the cells were rinsed with Krebs buffer and changes in the intracellular Ca^2+ concentration were monitored by determining the ratio of emitted light intensities at 520 nm in response to excitation at 340 and 380 nm using FLEXstation II (Molecular Devices, Sunnyvale, Calif.). Each well was monitored for 80-120 sec. For testing agonist activity of the compounds, the test compounds were added automatically after 15 sec of baseline measurement. To determine antagonist properties, varying concentrations of the compounds were mixed with a constant concentration of LPA and responses were monitored. Each test was performed in quadruplicate. EC50, IC50, and Ki values were calculated by fitting a sigmoid function to data points with the nonlinear curve-fitting feature of KaleidaGraph (Synergy Software, Essex Junction, Vt.).
Receptor activation using Ca^2+ mobilization assay. The assay for mobilization of intracellular Ca^2+ was performed as described. […] Using a FLEXStation (Molecular Devices, Sunnyvale, Calif.), changes in intracellular Ca^2+ concentration were monitored. Ligand-induced changes in fluorescence were monitored for 80-120 seconds. Ca^2+ transients were quantified automatically by calculating the difference between maximum and baseline ratio values for each sample. […] EC50, IC50, and Ki values were calculated as described. […]

HCT 116 cells [1] = assay: HCT 116 proliferation (MTS); type: cell-based; conditions: 2, 10, 20 μM, 72 h
Excerpt: Effects of bromo-LPA analogs on HCT 116 proliferation. HCT 116 cells were purchased from the American Type Culture Collection (Manassas, Mass.). Medium and reagents were obtained from the following sources: McCoy's 5a Medium (ATCC, Manassas, Va.); Penicillin-Streptomycin (MP biomedicals, Solon, Ohio); Fetal bovine serum (ATCC, Manassas, Mass.); Accutase (MP biomedicals, Solon, Ohio); MTS (Promega, Madison, Wis.); Matrigel (Becton Dickinson Labware, Cambridge, Mass.); Extracel (Glycosan, Salt Lake City, Utah). Lysophosphatidic acid receptor pan-Antagonist (LPAa)—the pure diastereomers 1a and 1b, and the mixed diastereomers 1 (University of Utah, Salt Lake City, Utah).
HCT 116 cells were maintained in McCoy's 5a medium supplemented with 10% FBS, 100 μg/ml streptomycin, and 100 units/ml penicillin at 37° C. in 95% air, 5% CO2. 4,000HCT-116 cells were seeded in 100 μl media in each well of 96-well flat-bottomed microplates (BD Labware, N.J.). The pure diastereomers 1a and 1b, and the mixed diastereomers 1 were added at various final concentrations (2 μM, 10 μM, 20 μM) to each column. At 72 h, pipet 20 μl MTS (Promega, Madison, Wis.) into each well, and cells were further incubated for 2 h. The absorbance of the samples at 490 nm was measured using a 96-well plate reader (OPTI max, Sunnyvale, Calif.).

HCT 116 cells [2] = assay: HCT 116 wound-healing migration assay; type: cell-based; conditions: 20 μM; 0, 16, 24 and 48 hours
Procedure: Effects of BrP-LPA analogs on HCT 116 migration. HCT 116 (2×10^5 per well) were plated in a six-well plate. When the cells were 100% confluent, the cells were treated with Mitomycin C (Sigma, MO, USA) 10 μg/ml for 2 hours, and then the monolayer was scratched using a 200 μl pipette tip. Medium and nonadherent cells were aspirated, the adherent cells were washed once, and new medium containing various concentrations of the pure diastereomers 1a and 1b, and the mixed diastereomers 1 (2 μM, 10 μM, 20 μM) was added (FIG. 13). A photograph was taken at the marked field (n=4) at 0, 16, 24 and 48 hours (FIG. 14). Wound closure was expressed as a percentage of the initial wound area, which was quantified using NIH ImageJ software.

Structure (SMILES): CCCCCCCCCCCCCCCC(=O)OC[C@@H](O)C[C@@H](Br)P(=O)(O)O [Compound 1a]
- overall LPA GPCR ligand profile (LPA GPCRs): pan-antagonist

Structure (SMILES): CCCCCCCCCCCCCCCC(=O)OC[C@@H](O)C[C@H](Br)P(=O)(O)O [Compound 1b]
- HCT 116 cell proliferation (HCT 116 cells [1]): highly suppressed; also recorded: dose-dependent inhibition
- HCT 116 cell migration (HCT 116 cells [2]): greatest inhibition
